Earlier results as cited in US8377904B2, “Composition and method for use in cartilage affecting conditions” (Hill's Pet Nutrition, Inc., priority 2004, dated 2013).

Test system: pain of osteoarthritis

Compound: C[S+](CC[C@H](N)C(=O)[O-])C[C@H]1O[C@@H](n2cnc3c(N)ncnc32)[C@H](O)[C@@H]1O (some centres unmarked) [SAMe, S-adenosyl-L methionine]
- Outcome compared with non-steroidal anti-inflammatory medication (meta analysis): not associated with statistically significant difference in outcomes
- effective size in favor of SAMe compared to a placebo (one randomized clinical trial): 0.20
